Measured values: ChEMBL document CHEMBL1201862, “PubChem BioAssay data set” (2004)
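Tested at 5 concentrations; 48 h exposure; 96-well plates; endpoints linearly interpolated, else capped at highest concentration. Here, GI50 denotes the concentration required for 50% inhibition of growth.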 The source made the active and inactive calls. Cut-off read from the data, not from the text of the source: active = GI50 up to about 1.1 µM and inactive = higher.

Key:
Assay in all cases: DTP human tumour cell line panel, 48 h
[1] = system: 786-0
[2] = system: A549
[3] = system: ACHN
[4] = system: CCRF-CEM
[5] = system: COLO 205
[6] = system: DLD-1
[7] = system: DMS-114
[8] = system: DMS-273
[9] = system: EKVX
[10] = system: HCT-116
[11] = system: HCT-15
[12] = system: HL-60
[13] = system: HOP-18
[14] = system: HOP-62
[15] = system: HT-29
[16] = system: IGROV-1
[17] = system: K562
[18] = system: KM-20L2
[19] = system: KM12
[20] = system: LOX IMVI
[21] = system: M14
[22] = system: M19-MEL
[23] = system: MOLT-4
[24] = system: Malme-3M
[25] = system: NCI-H226
[26] = system: NCI-H23
[27] = system: NCI-H460
[28] = system: NCI-H522
[29] = system: OVCAR-3
[30] = system: OVCAR-8
[31] = system: RPMI-8226
[32] = system: RXF 393
[33] = system: SF-295
[34] = system: SF-539
[35] = system: SK-MEL-28
[36] = system: SK-MEL-5
[37] = system: SK-OV-3
[38] = system: SN12C
[39] = system: SNB-19
[40] = system: SNB-75
[41] = system: SW-620
[42] = system: TK-10
[43] = system: U-251
[44] = system: UACC-257
[45] = system: UACC-62
[46] = system: UO-31
[47] = system: A498
[48] = system: BT-549
[49] = system: CAKI-1
[50] = system: DU-145
[51] = system: HCC 2998
[52] = system: HOP-92
[53] = system: Hs-578T
[54] = system: MCF7
[55] = system: MDA-MB-231
[56] = system: MDA-MB-435
[57] = system: MDA-N
[58] = system: NCI/ADR-RES
[59] = system: OVCAR-4
[60] = system: OVCAR-5
[61] = system: PC-3
[62] = system: SF-268
[63] = system: SK-MEL-2
[64] = system: SR
[65] = system: T47D

COc1ccc(NC(=O)CC(=O)N/N=C(\C)c2cc3ccccc3oc2=O)cc1
GI50 [1]: > 100 µM (inactive)
GI50 [2]: > 100 µM (inactive)
GI50 [3]: > 100 µM (inactive)
GI50 [4]: > 100 µM (inactive)
GI50 [5]: > 100 µM (inactive)
GI50 [6]: > 100 µM (inactive)
GI50 [7]: > 100 µM (inactive)
GI50 [8]: > 100 µM (inactive)
GI50 [9]: > 100 µM (inactive)
GI50 [10]: > 100 µM (inactive)
GI50 [11]: > 100 µM
GI50 [12]: > 100 µM (inactive)
GI50 [13]: 80.5 µM (inactive)
GI50 [14]: > 100 µM (inactive)
GI50 [15]: > 100 µM (inactive)
GI50 [16]: > 100 µM (inactive)
GI50 [17]: > 100 µM (inactive)
GI50 [18]: > 100 µM (inactive)
GI50 [19]: > 100 µM (inactive)
GI50 [20]: > 100 µM (inactive)
GI50 [21]: > 100 µM (inactive)
GI50 [22]: > 100 µM (inactive)
GI50 [23]: > 100 µM (inactive)
GI50 [24]: > 100 µM (inactive)
GI50 [25]: > 100 µM (inactive)
GI50 [26]: > 100 µM (inactive)
GI50 [27]: > 100 µM (inactive)
GI50 [28]: > 100 µM (inactive)
GI50 [29]: > 100 µM (inactive)
GI50 [30]: > 100 µM (inactive)
GI50 [31]: > 100 µM (inactive)
GI50 [32]: > 100 µM (inactive)
GI50 [33]: > 100 µM (inactive)
GI50 [34]: > 100 µM (inactive)
GI50 [35]: > 100 µM (inactive)
GI50 [36]: > 100 µM (inactive)
GI50 [37]: > 100 µM (inactive)
GI50 [38]: > 100 µM (inactive)
GI50 [39]: > 100 µM (inactive)
GI50 [40]: > 100 µM (inactive)
GI50 [41]: > 100 µM (inactive)
GI50 [42]: > 100 µM (inactive)
GI50 [43]: > 100 µM (inactive)
GI50 [44]: 89.9 µM (inactive)
GI50 [45]: > 100 µM (inactive)
GI50 [46]: > 100 µM (inactive)

CCC12C=CCN3CCC4(c5cc(C(c6ccc(OC)cc6)C6Cc7ccccc7N6)c(OC)cc5N(C)C4C(O)(C(=O)OC)C1O)C32 (stereo not given)
GI50 [1]: 18.7 µM (inactive)
GI50 [47]: 11.6 µM (inactive)
GI50 [2]: 20.4 µM (inactive)
GI50 [3]: 19.2 µM (inactive)
GI50 [48]: 19.9 µM (inactive)
GI50 [49]: 18.7 µM (inactive)
GI50 [4]: 3.67 µM (inactive)
GI50 [5]: 8.36 µM (inactive)
GI50 [50]: 29 µM (inactive)
GI50 [9]: 36.1 µM (inactive)
GI50 [51]: 20 µM (inactive)
GI50 [10]: 14.4 µM (inactive)
GI50 [11]: 22 µM
GI50 [12]: 1.72 µM (inactive)
GI50 [14]: 26.5 µM (inactive)
GI50 [52]: 2.81 µM (inactive)
GI50 [15]: 18.2 µM (inactive)
GI50 [53]: 63.7 µM (inactive)
GI50 [16]: 16.9 µM (inactive)
GI50 [17]: 3.42 µM (inactive)
GI50 [19]: 5.89 µM (inactive)
GI50 [20]: 14.1 µM (inactive)
GI50 [21]: 24.2 µM (inactive)
GI50 [54]: 5.19 µM (inactive)
GI50 [55]: 16.1 µM (inactive)
GI50 [56]: 12.7 µM (inactive)
GI50 [57]: 18.8 µM (inactive)
GI50 [23]: 2.26 µM (inactive)
GI50 [24]: 36.6 µM (inactive)
GI50 [25]: 32.7 µM (inactive)
GI50 [26]: 27 µM (inactive)
GI50 [27]: 17.6 µM (inactive)
GI50 [28]: 16.4 µM (inactive)
GI50 [58]: 26.1 µM (inactive)
GI50 [29]: 19.2 µM (inactive)
GI50 [59]: 9.33 µM (inactive)
GI50 [60]: 36.7 µM (inactive)
GI50 [30]: 15.1 µM (inactive)
GI50 [61]: 12.6 µM (inactive)
GI50 [31]: 1.83 µM (inactive)
GI50 [32]: 14.3 µM (inactive)
GI50 [62]: 44.6 µM (inactive)
GI50 [33]: 18.3 µM (inactive)
GI50 [34]: 21 µM (inactive)
GI50 [35]: 30.2 µM (inactive)
GI50 [63]: 15.3 µM (inactive)
GI50 [36]: 12.1 µM (inactive)
GI50 [37]: 29.4 µM (inactive)
GI50 [38]: 37.4 µM (inactive)
GI50 [39]: 17.9 µM (inactive)
GI50 [40]: 3.66 µM (inactive)
GI50 [64]: 8.04 µM (inactive)
GI50 [41]: 21.5 µM (inactive)
GI50 [65]: 2.9 µM (inactive)
GI50 [42]: 22.9 µM (inactive)
GI50 [43]: 11 µM (inactive)
GI50 [44]: 20.5 µM (inactive)
GI50 [45]: 11.8 µM (inactive)
GI50 [46]: 10.2 µM (inactive)
